≈ marks a conversion by molar mass, not a printed value.
Test system: Mycobacterium tuberculosis
Assay: Antibacterial activity against multidrug-resistant Mycobacterium tuberculosis H37Rv ATCC 27294 after 28 days by agar dilution method
Type: functional
Conditions: H37Rv ATCC 27294, 672 h

| SMILES | MIC [µM] |
| --- | --- |
| NC(=O)c1cc(-c2ccccc2)sc1NC(=O)Nc1ccc(Br)cc1 | 15 (≈ 6.25 µg/mL) |
| NC(=O)c1cc(-c2ccccc2)sc1NC(=O)Nc1ccc(Cl)cc1 | 8.42 (≈ 3.13 µg/mL) |
| NC(=O)c1cc(-c2ccccc2)sc1NC(=O)Nc1ccc(F)cc1 | 17.6 (≈ 6.25 µg/mL) |
| NC(=O)c1cc(-c2ccccc2)sc1NC(=O)Nc1ccc([N+](=O)[O-])cc1 | 16.3 (≈ 6.24 µg/mL) |
| NC(=O)c1cc(-c2ccccc2)sc1NC(=O)Nc1ccccc1 | 9.27 (≈ 3.13 µg/mL) |
| Cc1ccc(NC(=O)Nc2sc(-c3ccccc3)cc2C(N)=O)cc1 | 35.6 (≈ 12.5 µg/mL) |
| NC(=O)c1cc(-c2ccccc2)sc1NC(=O)NCc1ccccc1 | 18.5 (≈ 6.5 µg/mL) |
| CC(C)NC(=O)Nc1sc(-c2ccccc2)cc1C(N)=O | 10.2 (≈ 3.11 µg/mL) |
| NC(=O)c1cc(-c2ccccc2)sc1NC(=S)Nc1ccc(Br)cc1 | 18 (≈ 7.78 µg/mL) |
| NC(=O)c1cc(-c2ccccc2)sc1NC(=S)Nc1ccc(Cl)cc1 | 80.7 (≈ 31.3 µg/mL) |
| NC(=O)c1cc(-c2ccccc2)sc1NC(=S)Nc1ccc(F)cc1 | 67.4 (≈ 25 µg/mL) |
| NC(=O)c1cc(-c2ccccc2)sc1NC(=S)Nc1ccc([N+](=O)[O-])cc1 | 78.5 (≈ 31.3 µg/mL) |
| NC(=O)c1cc(-c2ccccc2)sc1NC(=S)Nc1ccccc1 | 70.8 (≈ 25 µg/mL) |
| Cc1ccc(NC(=S)Nc2sc(-c3ccccc3)cc2C(N)=O)cc1 | 8.5 (≈ 3.12 µg/mL) |
| NC(=O)c1cc(-c2ccccc2)sc1NC(=S)NCc1ccccc1 | 34 (≈ 12.5 µg/mL) |
| CC(C)NC(=S)Nc1sc(-c2ccccc2)cc1C(N)=O | 19.6 (≈ 6.26 µg/mL) |

| SMILES | MIC [µM] |
| --- | --- |
| NC(=O)c1cc(-c2ccccc2)sc1NC(=O)c1ccc(Cl)cc1 | 8.76 (≈ 3.13 µg/mL) |
| NC(=O)c1cc(-c2ccccc2)sc1NC(=O)c1ccc([N+](=O)[O-])cc1 | 8.48 (≈ 3.12 µg/mL) |
| NC(=O)c1cc(-c2ccccc2)sc1NC(=O)c1cccc2ccccc12 | 25 (≈ 9.3 µg/mL) |
| NC(=O)c1cc(-c2ccccc2)sc1NC(=O)c1cnccn1 | 38.6 (≈ 12.5 µg/mL) |
| NC(=O)c1cc(-c2ccccc2)sc1NC(=O)c1cc2ccccc2[nH]1 | 34.6 (≈ 12.5 µg/mL) |
| NC(=O)c1cc(-c2ccccc2)sc1NC(=O)c1ccc(Oc2ccccc2)cc1 | 15.1 (≈ 6.25 µg/mL) |
| NC(=O)c1cc(-c2ccccc2)sc1NC(=O)c1ccccc1 | 4.84 (≈ 1.56 µg/mL) |
| CC(=O)Nc1sc(-c2ccccc2)cc1C(N)=O | 24 (≈ 6.26 µg/mL) |
| CCC(=O)Nc1sc(-c2ccccc2)cc1C(N)=O | 22.8 (≈ 6.26 µg/mL) |
| CCCC(=O)Nc1sc(-c2ccccc2)cc1C(N)=O | 10.8 (≈ 3.13 µg/mL) |
| NC(=O)c1cc(-c2ccccc2)sc1NC(=O)C1CCCC1 | 39.7 (≈ 12.5 µg/mL) |
| NC(=O)c1cc(-c2ccccc2)sc1NC(=O)C1CCCCC1 | 9.48 (≈ 3.11 µg/mL) |
| CC[C@@H](CO)NCCN[C@@H](CC)CO [ETHAMBUTOL] | 7.64 (≈ 1.56 µg/mL) |
| NNC(=O)c1ccncc1 [ISONIAZID] | 0.66 (≈ 0.0905 µg/mL) |
| CC1COc2c(N3CCN(C)CC3)c(F)cc3c(=O)c(C(=O)O)cn1c23 (configuration not stated) [OFLOXACIN] | 2.16 (≈ 0.781 µg/mL) |
| CO[C@H]1/C=C/O[C@@]2(C)Oc3c(C)c(O)c4c(O)c(c(/C=N/N5CCN(C)CC5)c(O)c4c3C2=O)NC(=O)/C(C)=C\C=C\[C@H](C)[C@H](O)[C@@H](C)[C@@H](O)[C@@H](C)[C@H](OC(C)=O)[C@@H]1C [RIFAMPIN] | 0.23 (≈ 0.189 µg/mL) |

From ChEMBL document CHEMBL3400074, “Development of 2-amino-5-phenylthiophene-3-carboxamide derivatives as novel inhibitors of Mycobacterium tuberculosis DNA GyrB domain” (Bioorg Med Chem, 2015)
